In US6524630B2, “Use of cocoa procyanidins combined with acelylsalicyclic acid as an anti-platelet therapy” (Mars, Incorporated, priority 2000, dated 2003):
Marks after values point to notes of the source that are not given here.

Key:
Format in all cases: in vivo, human
[1] = test system: activated conformation of the GPIIb/IIIa platelet receptor; assay: Ex vivo flow cytometry (PAC1) of activated GPIIb/IIIa on platelets after treatment; conditions: at 6 hours compared to baseline
Method: The subjects used in the previous study also participated in the surface protein expression study. The methodology with respect to treatment regimes and collection of blood was identical to that which was outlined in the previous example. Within 10 minutes of draw, whole blood was incubated in polystyrene tubes for 5 minutes at room temperature with 10 μm HEPES buffer (pH 7.4, unstimulated control), 20 or 100 μm ADP or 20 μtm epinephrine (BioData, Horsham, Pa.) in the presence or absence of the peptide […] (Sigma, St. Louis, Mo.). After 5 minutes, samples were suspended in 1 ml HEPES buffer and 100 μm of sample were transferred to tubes containing saturating concentrations (20 μm ) each of the following fluorescent-labeled monoclonal antibodies: PAC1-fluorescein isothiocyanate (FITC), anti-CD62P-phycoerythrin (PE) and anti-CD42a-PerCP. PAC1 recognizes the activated conformation of the fibrinogen-binding receptor GPIIb-IIIa and anti-CD62P recognizes P-selectin, present on the surface of activated platelets. […] All samples were analyzed within 48 hours on a FACScan flow cytometer using […] software. […] Twenty thousand events were collected in list mode with all light-scatter and fluorescence parameters in logarithmic code. […] The platelet-dependent hemostasis data were also analyzed for statistical differences among treatment groups for each time point, baseline, 2 and 6 hour.

[2] = test system: P-selectin (CD62P); assay: Ex vivo flow cytometry of platelet surface expression of P-selectin after treatment
Method: The subjects used in the previous study also participated in the surface protein expression study. The methodology with respect to treatment regimes and collection of blood was identical to that which was outlined in the previous example. Within 10 minutes of draw, whole blood was incubated in polystyrene tubes for 5 minutes at room temperature with 10 μm HEPES buffer (pH 7.4, unstimulated control), 20 or 100 μm ADP or 20 μtm epinephrine (BioData, Horsham, Pa.) in the presence or absence of the peptide […] (Sigma, St. Louis, Mo.). After 5 minutes, samples were suspended in 1 ml HEPES buffer and 100 μm of sample were transferred to tubes containing saturating concentrations (20 μm ) each of the following fluorescent-labeled monoclonal antibodies: PAC1-fluorescein isothiocyanate (FITC), anti-CD62P-phycoerythrin (PE) and anti-CD42a-PerCP. PAC1 recognizes the activated conformation of the fibrinogen-binding receptor GPIIb-IIIa and anti-CD62P recognizes P-selectin, present on the surface of activated platelets. Anti-CD42a recognizes GP1b-1X, which is on the surface of both activated and resting platelets. Mouse IgG, FITC and mouse IgG, PE were used as isotype controls. The […]-peptide was used to block binding of the PAC1 antibody to platelets and thus set the negative control marker on the flow cytometer. Antibodies and isotype controls were purchased from Becton Dickinson Immunocytometry Systems, Inc., San Jose, Calif. Whole blood samples in the presence and absence of the agonists ADP and epinephrine were incubated with monoclonal antibodies or isotype control for 20 minutes in the dark at room temperature. Samples were then fixed in filtered 1% paraformaldehyde (pH 7.2) and stored in the dark at 2-8° C. All samples were analyzed within 48 hours on a FACScan flow cytometer using […] software. The flow cytometer performance was verified using 1, 2 and 10 μm calibration beads (Becton Dickinson Immunocytometry Systems, Inc., San Jose, Calif. and Flow Cytometry Systems, Research Triangle Park, N.C.). Twenty thousand events were collected in list mode with all light-scatter and fluorescence parameters in logarithmic code. Platelets were gated on the basis of […] CD42a expression. Activated platelets were defined as the percentage of CD42a positive events coexpressing the activated conformation of GPIIb-IIa or P-selectin. Platelet microparticles were defined as the percentage of CD42a positive events less than 2 μm in size. To perform the statistical analysis of the results, Friedman's repeated measures ANOVA on ranks (RM ANOVA on ranks) was used to compare the baseline, 2 and 6 hour results in each treatment group. Tukey's all pairwise comparison was used for post hoc multiple comparisons. […] The platelet-dependent hemostasis data were also analyzed for statistical differences among treatment groups for each time point, baseline, 2 and 6 hour.

[3] = test system: thromboxane (TXA2) metabolite TXB2; assay: Enzyme immunoassay of thromboxane metabolite in blood after treatment
Method: Blood was drawn from the subjects prior to consumption of any food. After the initial blood was drawn, the subjects were divided into four groups. One group consumed 81 mg of aspirin (acetylsalicylic acid) (Bayer pediatric aspirin). A second group consumed a high cocoa polyphenol beverage consisting of 18.75 g of procyanidin enriched cocoa powder derived from Sulawesi beans (containing 51.1 mg/g of total procyanidins, 11.2% fat, 0.092% caffeine, 1.618% theobromine) and 12.5 g of sucrose mixed with 300 ml of distilled water. A third group consumed the high cocoa procyanidin beverage and 81 mg of baby aspirin. The final group consumed 81 mg of baby aspirin and a procyanidin deficient cocoa beverage consisting of 18.75 g of cocoa powder (containing 0.45 mg/g total procyanidins, 9.87% fat, 2.063% theobromine, 0.234% caffeine) and 12.5 g of sucrose mixed with 300 ml of distilled water. During the test period the subjects were permitted to consume water, caffeine-free diet soda, bagels, low fat cream cheese, and bananas. Blood was drawn from each of the subjects two hours and six hours post consumption of the treatment. Venous blood was aspirated into evacuated tubes containing 0.5 ml of 3.2% buffered sodium citrate solution.
The blood samples were also analyzed for changes in leukotriene, prostacyclin and thromboxane levels resulting from the four treatment regimes. Immunoassay procedures were conducted as described by Westcott et al, “Analysis Of 6-Keto PGF1 Alpha, 5-HETE, And LTC4 In Rat Lung: Comparison Of GM/MS, RIA and EIA”, Prostaglandins 32:857-873, 1986; Yakota et al, “Enzyme Immunoassay Of Prostanoids In Blood And Urine”, Adv. Prostgl.Thrombox. Leukot. Res. 15:33-34, 1985; and Schramm et al, “Differential Effects of Small and Large Molecular Weight Phytochemicals on Endothelial Cell Eicosanoid Secretion” J Agric Food Chem 46:1900-1905, 1998. The prostacyclin (PGI2) metabolite 6-keto prostaglandin F1-alpha was measured with Cayman enzyme immunoassay #515211, the thromboxane (TXA2) metabolite TXB2 was measured with Cayman enzyme immunoassay 519031, and leukotrienes C4, D4 and E4 were quantified using the immunoassay EA-39 from Oxford Biomedical Research. P values were calculated using the paired sample T-test. Values of p<0.05 were considered to be statistically significant.

[4] = test system: leukotrienes C4, D4 and E4; assay: Immunoassay of leukotrienes in blood after treatment
Method: Blood was drawn from the subjects prior to consumption of any food. After the initial blood was drawn, the subjects were divided into four groups. One group consumed 81 mg of aspirin (acetylsalicylic acid) (Bayer pediatric aspirin). A second group consumed a high cocoa polyphenol beverage consisting of 18.75 g of procyanidin enriched cocoa powder derived from Sulawesi beans (containing 51.1 mg/g of total procyanidins, 11.2% fat, 0.092% caffeine, 1.618% theobromine) and 12.5 g of sucrose mixed with 300 ml of distilled water. A third group consumed the high cocoa procyanidin beverage and 81 mg of baby aspirin. The final group consumed 81 mg of baby aspirin and a procyanidin deficient cocoa beverage consisting of 18.75 g of cocoa powder (containing 0.45 mg/g total procyanidins, 9.87% fat, 2.063% theobromine, 0.234% caffeine) and 12.5 g of sucrose mixed with 300 ml of distilled water. During the test period the subjects were permitted to consume water, caffeine-free diet soda, bagels, low fat cream cheese, and bananas. Blood was drawn from each of the subjects two hours and six hours post consumption of the treatment. Venous blood was aspirated into evacuated tubes containing 0.5 ml of 3.2% buffered sodium citrate solution. The blood samples were also analyzed for changes in leukotriene, prostacyclin and thromboxane levels resulting from the four treatment regimes. Immunoassay procedures were conducted as described by Westcott et al, “Analysis Of 6-Keto PGF1 Alpha, 5-HETE, And LTC4 In Rat Lung: Comparison Of GM/MS, RIA and EIA”, Prostaglandins 32:857-873, 1986; Yakota et al, “Enzyme Immunoassay Of Prostanoids In Blood And Urine”, Adv. Prostgl.Thrombox. Leukot. Res. 15:33-34, 1985; and Schramm et al, “Differential Effects of Small and Large Molecular Weight Phytochemicals on Endothelial Cell Eicosanoid Secretion” J Agric Food Chem 46:1900-1905, 1998. The prostacyclin (PGI2) metabolite 6-keto prostaglandin F1-alpha was measured with Cayman enzyme immunoassay #515211, the thromboxane (TXA2) metabolite TXB2 was measured with Cayman enzyme immunoassay 519031, and leukotrienes C4, D4 and E4 were quantified using the immunoassay EA-39 from Oxford Biomedical Research. P values were calculated using the paired sample T-test. Values of p<0.05 were considered to be statistically significant.

[5] = test system: prostacyclin (PGI2) metabolite 6-keto prostaglandin F1-alpha; assay: Enzyme immunoassay of prostacyclin metabolite in blood after treatment
Method: Blood was drawn from the subjects prior to consumption of any food. After the initial blood was drawn, the subjects were divided into four groups. One group consumed 81 mg of aspirin (acetylsalicylic acid) (Bayer pediatric aspirin). A second group consumed a high cocoa polyphenol beverage consisting of 18.75 g of procyanidin enriched cocoa powder derived from Sulawesi beans (containing 51.1 mg/g of total procyanidins, 11.2% fat, 0.092% caffeine, 1.618% theobromine) and 12.5 g of sucrose mixed with 300 ml of distilled water. A third group consumed the high cocoa procyanidin beverage and 81 mg of baby aspirin. […] The blood samples were also analyzed for changes in leukotriene, prostacyclin and thromboxane levels resulting from the four treatment regimes. […] The prostacyclin (PGI2) metabolite 6-keto prostaglandin F1-alpha was measured with Cayman enzyme immunoassay #515211, the thromboxane (TXA2) metabolite TXB2 was measured with Cayman enzyme immunoassay 519031, and leukotrienes C4, D4 and E4 were quantified using the immunoassay EA-39 from Oxford Biomedical Research. P values were calculated using the paired sample T-test. […]

CC(=O)Oc1ccccc1C(=O)O [Aspirin, acetylsalicylic acid]
epinephrine-induced GPIIb/IIIa expression [1]: suppressed | % CD62 + Platelets, Median ([2]; 20 μM ADP, 0 Hour (before consumption)): 64.5% | % CD62 + Platelets, Median ([2]; 20 μM ADP, 2 Hour): 60.3% | % CD62 + Platelets, Median ([2]; 20 μM ADP, 6 Hour): 60.8% | % CD62 + Platelets, Median ([2]; 20 μM Epinephrine, 0 Hour (before consumption)): 7.9% | % CD62 + Platelets, Median ([2]; 20 μM Epinephrine, 2 Hour): 6.2% | % CD62 + Platelets, Median ([2]; 20 μM Epinephrine, 6 Hour): 4.7* % | % CD62 + Platelets, Median ([2]; Unstimulated, 0 Hour (before consumption)): 1.4% | % CD62 + Platelets, Median ([2]; Unstimulated, 2 Hour): 1.5% | % CD62 + Platelets, Median ([2]; Unstimulated, 6 Hour): 1.3% | epinephrine-induced P-selectin expression ([2]; at 6 hours compared to baseline, in words): suppressed | TXB2/PG12 ratio ([3]; 2 hrs post consumption): 89 | Thromboxane ([3]; 2 hrs post consumption): 91 | TXB2/PG12 ratio ([3]; 6 hrs post consumption): 86 | Thromboxane ([3]; 6 hrs post consumption): 89 | LT/PG12 ratio ([4]; 2 hrs post consumption): 99 | Leukotrienes ([4]; 2 hrs post consumption): 101 | LT/PG12 ratio ([4]; 6 hrs post consumption): 100 | Leukotrienes ([4]; 6 hrs post consumption): 100 | Prostacyclin ([5]; 2 hrs post consumption): 103 | Prostacyclin ([5]; 6 hrs post consumption): 104
